Among the data in patent publication US20210395256A1, “TYROSINE KINASE INHIBITORS, COMPOSITIONS AND METHODS THERE OF” (Betta Pharmaceuticals Co., Ltd., priority 2018, published 2021) are inhibition and IC50 values, retold here.

The target of data set [1] is T1, CYP3A4 (Homo sapiens, UniProt P08684).
T1 construct: from tissue; host or cells: human liver microsomes
Briefly: Cytochrome P450 inhibition, CYP3A4. It is filed as in vitro ADME. Conditions: 10 μM compound, human liver microsomes; for inhibition at 5 min, 10 µM: probe Midazolam (5 μM), substrate Midazolam, read-out: Inhibition percentage CYP3A4 (Midazolam); for inhibition at 10 min, 10 µM: probe Testosterone (50 μM), substrate Testosterone, read-out: Inhibition percentage CYP3A4 (Testosterone). On the procedure: Example 205 Cytochrome P450 Measurements
The cytochrome P450 was measured as the following procedure:
1) A master solution containing phosphate buffer, ultra-pure H2O, MgCl2 solution and human liver microsomes was made according to Table 17, and then 1 μL of 2 mM of compound solution or 1 μL of DMSO (as without inhibitor control) was added to the above master solution. The final concentration of test compounds or control compounds was 10 μM.
6) For CYP3A4 inhibition, 1 μL of specific drug substrate (Midazolam: 1 mM) was added at the final concentration of 5 μM to the above solution.
7) For CYP3A4 inhibition, 1 μL of specific drug substrate (Testosterone: 10 mM) was added at the final concentration of 50 μM to the above solution.
8) The mixture was pre-warmed at 37° C. for 5 min. The reaction was started by the addition of 20 μL of 10 mM NADPH solution at the final concentration of 1 mM and carried out at 37° C.
9) The reaction was stopped by addition of 300 μL of cold quench solution (methanol containing internal standards (1S, 500 nM Labetalol, 100 nM Alprazolam and 2 μM Ketoprofen) at the designated time points (Phenacetin: 20 min; Paclitaxel: 10 min; Tolbutamide: 20 min; (s)-Mephenytoin: 20 min; Midazolam: 5 min; Testosterone: 10 min). Samples were vortexed for 5 minutes and centrifuged at 3220 g for 40 minutes at 4° C. And then 100 μL of the supernatant was transferred to a new 96-well plate with 100 μL or 200 μL water (depends on the LC-MS signal response and peak shape) for LC-MS/MS analysis.
All experiments were performed in duplicates.
Inhibition percentages for compounds against CYP1A2, CYP2C8, CYP2C9, CYP2C19, and […]
In general terms: Liver microsomes are vesicles of endoplasmic reticulum, rich in cytochrome P450 enzymes.

For data set [2], the target named is T2, CYP1A2 (Homo sapiens, UniProt P05177).
T2 construct: from tissue; host or cells: human liver microsomes
T2 sequence (P05177 1-516): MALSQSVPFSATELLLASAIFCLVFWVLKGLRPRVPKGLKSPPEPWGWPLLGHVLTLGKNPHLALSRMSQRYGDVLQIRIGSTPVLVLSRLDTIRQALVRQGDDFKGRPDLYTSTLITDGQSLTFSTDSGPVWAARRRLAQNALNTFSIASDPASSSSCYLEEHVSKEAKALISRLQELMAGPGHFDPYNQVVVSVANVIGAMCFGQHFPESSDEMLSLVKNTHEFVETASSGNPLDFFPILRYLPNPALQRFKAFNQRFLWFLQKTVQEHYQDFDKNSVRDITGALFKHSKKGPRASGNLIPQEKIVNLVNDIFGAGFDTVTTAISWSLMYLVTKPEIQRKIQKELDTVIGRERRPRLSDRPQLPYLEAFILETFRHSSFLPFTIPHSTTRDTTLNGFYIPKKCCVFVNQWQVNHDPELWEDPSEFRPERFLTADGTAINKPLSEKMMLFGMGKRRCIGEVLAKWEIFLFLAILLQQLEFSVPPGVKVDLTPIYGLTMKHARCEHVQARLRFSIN
Description: Cytochrome P450 inhibition, CYP1A2. Conditions: probe Phenacetin (40 μM); 10 μM compound, human liver microsomes, substrate Phenacetin; read-out: Inhibition percentage CYP1A2 (Phenacetin). It is filed as in vitro ADME. As to the method:
Example 205 Cytochrome P450 Measurements The cytochrome P450 was measured as the following procedure: 1) A master solution containing phosphate buffer, ultra-pure H2O, MgCl2 solution and human liver microsomes was made according to Table 17, and then 1 μL of 2 mM of compound solution or 1 μL of DMSO (as without inhibitor control) was added to the above master solution. The final concentration of test compounds or control compounds was 10 μM. [table] 2) For CYP1A2 inhibition, 1 μL of specific drug substrate (Phenacetin: 8 mM) was added at the final concentration of 40 μM to the above solution. 8) The mixture was pre-warmed at 37° C. for 5 min. The reaction was started by the addition of 20 μL of 10 mM NADPH solution at the final concentration of 1 mM and carried out at 37° C. 9) The reaction was stopped by addition of 300 μL of cold quench solution (methanol containing internal standards (1S, 500 nM Labetalol, 100 nM Alprazolam and 2 μM Ketoprofen) at the designated time points (Phenacetin: 20 min; Paclitaxel: 10 min; Tolbutamide: 20 min; (s)-Mephenytoin: 20 min; Midazolam: 5 min; Testosterone: 10 min). Samples were vortexed for 5 minutes and centrifuged at 3220 g for 40 minutes at 4° C. And then 100 μL of the supernatant was transferred to a new 96-well plate with 100 μL or 200 μL water (depends on the LC-MS signal response and peak shape) for LC-MS/MS analysis. All experiments were performed in duplicates.

Data set [3] addresses NTRK1-G595R (Homo sapiens, UniProt P04629, G595R). Briefly: NTRK1-G595R cell proliferation assay (Table 13). It is filed as cell-based.

T1 sequence (P08684 whole entry): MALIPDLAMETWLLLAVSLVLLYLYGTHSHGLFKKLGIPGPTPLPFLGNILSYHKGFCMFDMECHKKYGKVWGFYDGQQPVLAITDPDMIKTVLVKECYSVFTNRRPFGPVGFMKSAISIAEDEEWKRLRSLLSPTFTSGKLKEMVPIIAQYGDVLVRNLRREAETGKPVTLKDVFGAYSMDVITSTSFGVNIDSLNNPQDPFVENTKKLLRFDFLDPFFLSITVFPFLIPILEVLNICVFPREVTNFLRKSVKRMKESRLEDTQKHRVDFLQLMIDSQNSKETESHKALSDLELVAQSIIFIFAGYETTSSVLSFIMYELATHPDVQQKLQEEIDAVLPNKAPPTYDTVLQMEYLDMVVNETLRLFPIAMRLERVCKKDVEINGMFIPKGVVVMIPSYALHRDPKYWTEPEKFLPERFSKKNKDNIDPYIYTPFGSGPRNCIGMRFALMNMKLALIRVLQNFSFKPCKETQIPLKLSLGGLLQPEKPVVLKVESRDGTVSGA
Chain of NTRK1-G595R (P04629 33-796 G595R): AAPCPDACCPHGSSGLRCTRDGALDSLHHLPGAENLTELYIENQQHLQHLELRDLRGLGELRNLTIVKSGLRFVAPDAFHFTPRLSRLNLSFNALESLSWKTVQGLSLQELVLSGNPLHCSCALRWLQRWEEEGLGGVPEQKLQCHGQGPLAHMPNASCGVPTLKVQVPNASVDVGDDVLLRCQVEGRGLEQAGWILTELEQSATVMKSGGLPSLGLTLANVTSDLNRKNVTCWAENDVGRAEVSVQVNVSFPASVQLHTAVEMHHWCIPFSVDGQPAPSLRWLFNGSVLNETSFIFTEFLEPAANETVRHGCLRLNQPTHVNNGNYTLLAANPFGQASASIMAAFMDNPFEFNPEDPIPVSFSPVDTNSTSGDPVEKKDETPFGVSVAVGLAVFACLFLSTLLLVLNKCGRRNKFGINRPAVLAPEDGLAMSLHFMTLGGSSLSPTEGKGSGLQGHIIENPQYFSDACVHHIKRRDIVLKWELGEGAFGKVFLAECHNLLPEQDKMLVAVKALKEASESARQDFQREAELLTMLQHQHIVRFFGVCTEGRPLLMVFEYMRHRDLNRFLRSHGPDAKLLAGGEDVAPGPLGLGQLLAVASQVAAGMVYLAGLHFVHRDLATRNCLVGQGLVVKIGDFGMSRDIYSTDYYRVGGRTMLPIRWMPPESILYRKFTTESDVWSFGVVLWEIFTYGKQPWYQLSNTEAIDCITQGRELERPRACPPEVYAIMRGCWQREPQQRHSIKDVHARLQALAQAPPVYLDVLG

As to `C[C@H](O)c1nnc(-c2cnn3ccc(N4CCC[C@@H]4c4cc(F)ccc4F)nc23)[nH]1` [Compound 4, (S)-1-(5-(5-((R)-2-(2,5-difluorophenyl)pyrrolidin-1-yl)pyrazolo[1,5-a]pyrimidin-3-yl)-4H-1,2,4-triazol-3-yl)ethan-1-ol], in data set [1], the inhibition at 5 min, 10 µM is 20% and the inhibition at 10 min, 10 µM was 22.8%. Also, in data set [2], the inhibition at 20 min, 10 µM stood at 1.53%.
Regarding `Cc1nnc(-c2cnn3ccc(N4CCCC4c4cc(F)ccc4F)nc23)[nH]1` (stereo not shown) [Comparative compound A, 5-[2-(2,5-Difluorophenyl)pyrrolidin-1-yl]-3-(5-methyl-1H-1,2,4-triazol-3-yl)pyrazolo[1,5-a]pyrimidine, reference compound], in data set [1], the inhibition at 5 min, 10 µM is 70.1% and the inhibition at 10 min, 10 µM was determined as 38.3%. In addition, the inhibition at 20 min, 10 µM in data set [2] turned out to be 29%.
On to `CC(C)(O)c1nnc(-c2cnn3ccc(N4CCC[C@@H]4c4cc(F)ccc4F)nc23)[nH]1` [Compound 7, (R)-2-(5-(5-(2-(2,5-difluorophenyl)pyrrolidin-1-yl)pyrazolo[1,5-a]pyrimidin-3-yl)-4H-1,2,4-triazol-3-yl)propan-2-ol], for which, in data set [1], the inhibition at 5 min, 10 µM was 6.97% and the inhibition at 10 min, 10 µM is 5.7%. This compound yielded a half-maximal inhibitory concentration (IC50) in data set [3] of 107 nM. For the same compound, the inhibition at 20 min, 10 µM in data set [2] was determined as 8.54%.
For `OC(c1nnc(-c2cnn3ccc(N4CCC[C@@H]4c4cc(F)ccc4F)nc23)[nH]1)C(F)(F)F` (stereo partly drawn) [Compound 47, 1-(5-(5-((R)-2-(2,5-difluorophenyl)pyrrolidin-1-yl)pyrazolo[1,5-a]pyrimidin-3-yl)-4H-1,2,4-triazol-3-yl)-2,2,2-trifluoroethan-1-ol], in data set [1], the inhibition at 5 min, 10 µM turned out to be 22.4% and the inhibition at 10 min, 10 µM stood at 29.5%. The inhibition at 20 min, 10 µM in data set [2] was found to be 4.38%.

A word on the inhibition: it is the change of the read-out against control, counted positive when it falls. By IC50 is commonly meant the concentration at which inhibition is half-maximal. A lower IC50 goes with greater potency.
